Experimental data: article PMC11831560, “Development of the Pyrido[2,3-d]pyrimidin-7(8H)-one Scaffold toward Potent and Selective NUAK1 Inhibitors” (ACS Medicinal Chemistry Letters, 2025)
Values joined by “and” are separate entries in the source; they are usually repeats but may differ in a detail not shown here. Equal values may be shown once.

Experiments:
[1] = target: T1, MARK2 (Homo sapiens, UniProt Q7KZI7); test: ADP-Glo biochemical assay MARK2; settings: for MARK2 pIC50 / IC50: ADP-Glo assay; for IC50: read-out: MARK2 pIC50 (converted)
T1 construct: purchased MRC PPU
T1 sequence (Q7KZI7 whole entry): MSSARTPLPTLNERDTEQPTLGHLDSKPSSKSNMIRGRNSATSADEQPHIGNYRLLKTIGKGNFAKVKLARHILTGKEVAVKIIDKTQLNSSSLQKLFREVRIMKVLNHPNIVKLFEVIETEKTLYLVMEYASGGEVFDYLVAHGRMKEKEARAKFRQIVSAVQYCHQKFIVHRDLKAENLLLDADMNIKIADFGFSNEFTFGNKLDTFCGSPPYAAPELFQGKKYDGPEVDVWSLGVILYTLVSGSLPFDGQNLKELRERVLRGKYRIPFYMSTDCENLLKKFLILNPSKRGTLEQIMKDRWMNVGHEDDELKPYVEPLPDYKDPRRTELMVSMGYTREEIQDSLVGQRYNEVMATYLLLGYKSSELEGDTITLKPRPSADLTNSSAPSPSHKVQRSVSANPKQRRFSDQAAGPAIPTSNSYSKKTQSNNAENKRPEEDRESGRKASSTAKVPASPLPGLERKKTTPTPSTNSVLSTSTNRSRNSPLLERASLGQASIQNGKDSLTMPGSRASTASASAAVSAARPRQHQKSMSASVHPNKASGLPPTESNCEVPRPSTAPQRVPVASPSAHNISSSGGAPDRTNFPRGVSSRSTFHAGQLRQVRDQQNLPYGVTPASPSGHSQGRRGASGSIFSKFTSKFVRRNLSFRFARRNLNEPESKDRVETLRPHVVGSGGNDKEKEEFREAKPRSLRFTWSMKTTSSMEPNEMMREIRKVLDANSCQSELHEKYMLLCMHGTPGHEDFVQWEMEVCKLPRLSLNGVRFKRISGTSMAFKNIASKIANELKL
Method: (§1) Biological experimental procedures
(§2) ADP-Glo biochemical assays
(§3) Protein kinase activity in the presence of inhibitor compounds was determined by ADP-Glo assay (Promega), as previously described.1,2 Compounds were serialised using a Labcyte Echo 520 and transferred to 384 well plates (Greiner 784201) followed by the addition 5 µL of substrate containing peptide and ATP at Km in buffer (see Table S6). 5 µL of purified protein was added and the plate was incubated for 60 minutes at room temperature (ng/well; see Table S6). 3 µL of assay mixture was transferred using an Integra Viaflo384 into a white low volume plate (Greiner 781904) prior to the addition of 3 µL of ADP-Glo Reagent™ for a further 40 minute incubation. After incubation with 6 µL of Kinase Detection Reagent for 30 minutes, plate luminescence was read (Pherastar FSX, BMG […]
(§4) 30 mM HEPES pH7.4, 3 mM MgCl2, 3 mM MnCl2, 1.2 mM DTT, 0.01% CHAPS
(§5) Table S6: Conditions for protein kinase ADP-Glo assays
(§6) ATP AT Peptide Peptide Enzyme Enzyme Assay Buffe Min.
(§7) Protein conc. P Peptide name conc. supplier amount supplier vol. r na […]
(§8) NUAK1 µM µM Sakamototide 50 µM Merck 6.7 ng PPU 10 µl A 6
(§9) A µM µM Sakamototide 100 µM Merck 1 ng PPU 10 µl B 2 […]
(§10) aMin. n: Minimum number of technical replicates per compound

[2] = target: T2, MARK3 (Homo sapiens, UniProt P27448); test: ADP-Glo biochemical assay MARK3; settings: for MARK3 pIC50 / IC50: ADP-Glo assay; for IC50: read-out: MARK3 pIC50 (converted)
T2 construct: purchased MRC PPU
T2 sequence (P27448 whole entry): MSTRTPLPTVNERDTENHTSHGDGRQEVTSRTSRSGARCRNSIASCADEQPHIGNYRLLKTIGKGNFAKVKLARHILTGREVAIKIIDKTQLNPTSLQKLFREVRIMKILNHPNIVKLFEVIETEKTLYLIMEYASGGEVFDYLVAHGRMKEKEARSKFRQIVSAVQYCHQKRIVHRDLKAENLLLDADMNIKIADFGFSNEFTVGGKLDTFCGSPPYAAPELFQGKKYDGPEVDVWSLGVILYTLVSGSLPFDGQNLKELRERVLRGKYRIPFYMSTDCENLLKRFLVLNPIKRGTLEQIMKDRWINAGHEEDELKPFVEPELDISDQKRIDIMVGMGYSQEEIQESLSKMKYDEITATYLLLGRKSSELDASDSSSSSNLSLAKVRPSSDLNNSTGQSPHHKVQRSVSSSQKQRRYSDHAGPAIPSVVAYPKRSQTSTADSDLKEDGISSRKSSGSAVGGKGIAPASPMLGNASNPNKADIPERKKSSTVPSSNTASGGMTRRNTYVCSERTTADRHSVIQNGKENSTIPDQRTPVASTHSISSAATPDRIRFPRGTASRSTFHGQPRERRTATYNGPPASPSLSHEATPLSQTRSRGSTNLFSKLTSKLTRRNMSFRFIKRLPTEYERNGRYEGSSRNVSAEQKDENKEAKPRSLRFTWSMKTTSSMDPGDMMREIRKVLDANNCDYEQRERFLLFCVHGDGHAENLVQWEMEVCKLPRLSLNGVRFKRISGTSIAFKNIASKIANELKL
Method: as §1, §2, §3, §4, §5, §6, §7, §8, §9, §10

[3] = target: T3, MARK1 (Homo sapiens, UniProt Q9P0L2); test: ADP-Glo biochemical assay MARK1; settings: for MARK1 pIC50 / IC50: ADP-Glo assay; for IC50: read-out: MARK1 pIC50 (converted)
T3 construct: purchased MRC PPU
T3 sequence (Q9P0L2 whole entry): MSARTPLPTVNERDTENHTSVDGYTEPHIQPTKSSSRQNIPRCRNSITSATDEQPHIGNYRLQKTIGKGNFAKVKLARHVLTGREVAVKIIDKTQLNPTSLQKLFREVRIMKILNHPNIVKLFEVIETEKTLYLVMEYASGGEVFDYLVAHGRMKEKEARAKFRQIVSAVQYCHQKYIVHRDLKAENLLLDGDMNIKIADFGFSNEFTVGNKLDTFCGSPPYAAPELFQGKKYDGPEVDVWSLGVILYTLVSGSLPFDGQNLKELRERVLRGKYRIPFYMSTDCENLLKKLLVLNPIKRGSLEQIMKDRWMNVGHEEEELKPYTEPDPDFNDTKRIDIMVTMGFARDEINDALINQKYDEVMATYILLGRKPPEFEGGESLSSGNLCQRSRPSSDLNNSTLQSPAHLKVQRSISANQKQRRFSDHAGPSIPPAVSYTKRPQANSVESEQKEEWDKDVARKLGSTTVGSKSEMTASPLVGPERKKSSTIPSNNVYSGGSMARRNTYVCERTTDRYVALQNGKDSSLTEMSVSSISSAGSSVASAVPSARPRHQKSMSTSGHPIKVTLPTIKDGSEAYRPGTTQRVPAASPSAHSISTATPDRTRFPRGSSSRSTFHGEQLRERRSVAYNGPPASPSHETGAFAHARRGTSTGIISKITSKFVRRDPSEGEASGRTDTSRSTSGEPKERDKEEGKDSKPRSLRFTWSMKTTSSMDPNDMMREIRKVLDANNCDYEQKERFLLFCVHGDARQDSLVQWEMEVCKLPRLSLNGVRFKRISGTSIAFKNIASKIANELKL
Method: as §1, §2, §3, §4, §5, §6, §7, §8, §9, §10

[4] = Microsomal stability, mouse; assay type: in vitro ADME; settings: mouse liver microsomes; read-out: MLM t1/2
Method: All single point assay determinations carried out in duplicate.
ADMET and PK experimental methods
Microsomal stability: analysis was performed by Cyprotex Discovery. […]

[5] = target: T4, NUAK2 (Homo sapiens, UniProt Q9H093); test: ADP-Glo biochemical assay NUAK2; settings: for NUAK2 pIC50 / IC50: ADP-Glo assay; for IC50: read-out: NUAK2 pIC50 (converted)
T4 construct: purchased MRC PPU
T4 sequence (Q9H093 1-628): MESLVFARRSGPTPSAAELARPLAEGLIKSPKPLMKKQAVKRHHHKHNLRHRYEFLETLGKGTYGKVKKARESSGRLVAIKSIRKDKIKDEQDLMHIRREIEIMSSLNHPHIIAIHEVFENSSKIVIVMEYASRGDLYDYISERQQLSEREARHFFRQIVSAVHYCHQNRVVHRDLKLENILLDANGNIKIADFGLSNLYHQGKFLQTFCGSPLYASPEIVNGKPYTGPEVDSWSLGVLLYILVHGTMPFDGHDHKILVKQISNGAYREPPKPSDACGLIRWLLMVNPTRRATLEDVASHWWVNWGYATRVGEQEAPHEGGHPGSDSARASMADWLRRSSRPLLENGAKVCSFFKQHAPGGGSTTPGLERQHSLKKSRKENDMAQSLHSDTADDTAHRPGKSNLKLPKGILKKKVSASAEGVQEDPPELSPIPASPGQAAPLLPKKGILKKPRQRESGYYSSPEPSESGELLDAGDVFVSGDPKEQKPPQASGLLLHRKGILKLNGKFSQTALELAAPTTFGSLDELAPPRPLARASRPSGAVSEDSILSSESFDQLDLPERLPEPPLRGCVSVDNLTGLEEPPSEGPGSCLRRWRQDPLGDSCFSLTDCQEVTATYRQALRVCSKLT
Method: as §1, §2, §3, §4, §5, §6, §7, §8, §9, §10

[6] = target: T5, MARK4 (Homo sapiens, UniProt Q96L34); test: ADP-Glo biochemical assay MARK4; settings: for MARK4 pIC50 / IC50: ADP-Glo assay; for IC50: read-out: MARK4 pIC50 (converted)
T5 construct: purchased MRC PPU
T5 sequence (Q96L34 1-752): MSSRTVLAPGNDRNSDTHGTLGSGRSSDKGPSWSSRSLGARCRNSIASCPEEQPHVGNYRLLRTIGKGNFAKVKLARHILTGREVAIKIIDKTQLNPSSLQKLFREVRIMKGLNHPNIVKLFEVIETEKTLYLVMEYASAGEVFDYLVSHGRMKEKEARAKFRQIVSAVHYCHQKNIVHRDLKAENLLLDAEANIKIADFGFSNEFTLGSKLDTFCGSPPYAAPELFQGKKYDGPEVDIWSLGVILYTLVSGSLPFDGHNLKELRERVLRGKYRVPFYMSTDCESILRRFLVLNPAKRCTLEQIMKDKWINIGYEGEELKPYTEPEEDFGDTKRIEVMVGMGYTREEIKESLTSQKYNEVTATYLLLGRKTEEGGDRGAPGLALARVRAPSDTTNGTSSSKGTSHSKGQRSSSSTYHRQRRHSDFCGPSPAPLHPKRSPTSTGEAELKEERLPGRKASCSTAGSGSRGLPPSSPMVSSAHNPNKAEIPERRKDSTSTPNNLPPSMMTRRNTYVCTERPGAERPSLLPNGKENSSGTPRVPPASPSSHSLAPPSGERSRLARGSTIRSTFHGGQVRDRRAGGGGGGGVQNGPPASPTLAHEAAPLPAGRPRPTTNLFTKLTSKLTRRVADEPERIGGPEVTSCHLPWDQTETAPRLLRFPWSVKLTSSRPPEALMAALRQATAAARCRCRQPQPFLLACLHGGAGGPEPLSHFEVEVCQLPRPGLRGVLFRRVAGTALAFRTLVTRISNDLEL
Method: as §1, §2, §3, §4, §5, §6, §7, §8, §9, §10

Row | SMILES | MARK2 pIC50 [1] | MARK2 Fold selectivity IC50/NUAK1 IC50 [1] | MARK3 pIC50 [2] | MARK3 Fold selectivity IC50/NUAK1 IC50 [2] | MARK1 pIC50 [3] | IC50 [3] | MARK1 Fold selectivity IC50/NUAK1 IC50 [3] | half-life at 0.75 h, 1 µM [4] | NUAK2 pIC50 [5] | IC50 [5] | NUAK2 Fold selectivity IC50/NUAK1 IC50 [5] | MARK4 pIC50 [6] | MARK4 Fold selectivity IC50/NUAK1 IC50 [6] | IC50 [1] | IC50 [2] | half-life at 1 µM [4] | IC50 [6]
1 | CN1C2CC1CN(c1ccc(Nc3ncc4ccn(CC5CCOCC5)c4n3)cc1)C2 [Compound 24] | 4.81 and 4.8 | 4898 fold | 5.22 and 5.2 | 1905 fold | 5.1 | 8910 nM | 2818 fold | 21.4 min | 7.6 | 26.9 nM | 9 fold | 4.9 | 3981 fold | – | – | – | –
2 | CC(C)N1CCN(c2ccc(Nc3ncc4ccn(CC5CCCO5)c4n3)cc2)CC1 (stereo not drawn) [Compound 27] | – | 603 fold | 6.2 | 200 fold and 201 fold | – | 1230 nM | 363 fold | – | – | 12.3 nM | 4 fold | – | 776 fold | 2040 nM | 676 nM | 8.4 min | 2630 nM
3 | Cc1cc(=O)n(C2CCCC2)c2nc(Nc3ccc(N4CCN(C)CC4)cc3)ncc12 [Compound 4] | 5.5 | 741 fold | 6.4 | 95 fold and 96 fold | 5.5 | 2950 nM | 646 fold | 6.2 min | 7.6 | 28.2 nM | 6 fold | 5.4 | 871 fold | 3390 nM | 437 nM | – | –
4 | Cc1cc(=O)n(C2CCCC2)c2nc(Nc3ccc(N4CC5CC(C4)N5C)cc3)ncc12 [Compound 9] | – | – | 6.2 | 112 fold | – | – | – | 20.9 min | 7.8 | 14.8 nM | 3 fold | – | – | – | – | – | –
5 | CN1C2CC1CN(c1ccc(Nc3ncc4ccn(CC5CCCO5)c4n3)cc1)C2 (stereo not drawn) [Compound 28] | – | 1047 fold | 5.68 and 5.7 | 380 fold | – | 4270 nM | 776 fold | – | – | 53.7 nM | 10 fold | – | 1175 fold | 5750 nM | – | 17 min | 6460 nM
6 | CC(C)N1CCN(c2ccc(Nc3ncc4ccn(C5CCCC5)c4n3)cc2)CC1 [Compound 8] | 5.72 and 5.7 | 417 fold | 6.2 | 138 fold | 5.8 | 1450 nM | 316 fold | 15.1 min | 7.4 | 43.7 nM | 10 fold | 5.6 | 513 fold | – | – | – | 2340 nM
7 | CN1CCN(c2ccc(Nc3ncc4cc(C#N)c(=O)n(C5CCCC5)c4n3)cc2)CC1 [Compound 3, Narazaciclib, reference compound] | 4.8 | 603 fold | 5.8 | 56 fold | 5.2 | 5890 nM | 224 fold | 8.4 min | 8.3 | 5.62 nM | – | 5.02 and 5.0 | 363 fold | – | 1480 nM | 8 min | –
8 | CC(C)N1CCN(c2ccc(Nc3ncc4ccn(CC5CCOC(C)(C)C5)c4n3)cc2)CC1 (stereo not drawn) [Compound 26] | – | 4074 fold | 5.2 | – | – | 10700 nM | 3890 fold | – | – | 38.9 nM | 14 fold | – | > 4700 fold | 11200 nM | – | 14.8 min | > 25100 nM
9 | CN1C2CC1CN(c1ccc(Nc3ncc4cc(C#N)c(=O)n(C5CCCC5)c4n3)cc1)C2 [Compound 10] | – | – | 5.9 | 83 fold | – | – | – | 33.1 min | 7.01 and 7.0 | – | 7 fold | – | – | – | – | – | –
10 | Cc1cc(=O)n(C(C)C)c2nc(Nc3ccc(N4CC5CC(C4)N5C)cc3)ncc12 [Compound 20] | – | – | 6.0 | 47 fold | – | – | – | 79.9 min | 7.2 | 69.2 nM | 3 fold | – | – | – | – | – | –
11 | CC(C)N1CCN(c2ccc(Nc3ncc4c(n3)N(C3CCCC3)C(=O)C4)cc2)CC1 [Compound 7] | 5.4 | 1072 fold | 6.02 and 6.0 | 229 fold | 5.5 | 2950 nM | 708 fold | 9.5 min | 6.9 | 141 nM | 34 fold | 5.19 and 5.2 | 1549 fold | 4470 nM | – | – | –
